Test results as given in US20240217985A1, “CRYSTALLINE FORM OF AN MDM2-p53 INHIBITOR AND PHARMACEUTICAL COMPOSITIONS” (Boehringer Ingelheim International GmbH, priority 2022, published 2024).

Tests used:
[1] = Accelerated stress test, stability at 40°C/75% RH (XRPD and HPLC); format: physicochemical; details: Example 1 material
Procedure: (§1) Crystalline materials of Compound A of the present invention were exposed to various temperature and humidity stress conditions and investigated by XRPD and HPLC in order to investigate their physical and chemical stability.
The crystalline form of Compound A of the present invention (prepared according to the procedure described in Example 1) was open stored under heat and humidity stress conditions of 40° C. and 75% RH for 6 months.

[2] = Gravimetric moisture sorption; format: physicochemical; details: 0 to 90% relative humidity, 25.0°C
Procedure: The crystalline form of Compound A of the present invention was subjected to a gravimetric moisture sorption experiment using a DVS intrinsic moisture sorption analyzer (Surface Measurement System). The measurement was conducted in relative humidity steps of 10%. The time per step was set to a minimum of 5 minutes and a maximum of 6 hours. If an equilibrium condition with a constant mass of ±0.02% within 10 min was reached before the maximum time, the subsequent step was applied before the maximum time of 6 hours. If no equilibrium was achieved the consecutive humidity step was applied after the maximum time of 6 hours. The temperature was (25.0±0.1° C.)

[3] = Accelerated stress test, stability at 25°C/60% RH (XRPD and HPLC); format: physicochemical; details: Example 1 material; for Impurity 1 / Impurity 2 / Impurity 3 / Impurity 4 / Impurity 5 / Total impurities: 25°C/60% RH open storage
Procedure: as §1
The crystalline form of Compound A of the present invention (prepared according to the procedure described in Example 1) was open stored under humidity stress conditions of 25° C. and 60% RH for 6 months.

[4] = Accelerated stress test, stability at 60°C/80% RH (XRPD and HPLC); format: physicochemical; details: for Impurity 1 / Impurity 2 / Impurity 3 / Impurity 4 / Impurity 5 / Total impurities: 60°C/80% RH open storage
Procedure: as §1
The crystalline form of Compound A of the present invention (prepared according to the procedure described in Example 1 and 3, respectively) was open stored under heat and humidity stress conditions of 60° C. and 80% RH for 3 days.
For example, the increase in total impurities of crystalline compound A obtained according to the procedure of Example 3 was below 0.5%. Table 9, provides the chemical stability data of the crystalline compound A obtained according to the procedure of Example 1.

[5] = tiny-TIM in vitro bioaccessibility under simulated fasted conditions; format: in vitro ADME
Procedure: A tiny-TIM system was used as a model for the simulation of the physiological processes occurring in human stomach and small intestine to study the in vitro bioaccessibility of the crystalline Compound A of the present invention (prepared according to the procedure described in Example 1) under simulated fasted conditions. Thereby, the impact of drug substance particle size distribution (PSD) and amorphous content on bioaccessibility was evaluated by using tablets manufactured from a range of drug substance batches with different amorphous contents and variations in PSD. The investigated drug products also cover extreme conditions such as low amorphous content and coarse PSD as well as high amorphous content and fine PSD.

[6] = Accelerated stress test, stability at 70°C and 105°C (XRPD and HPLC); format: physicochemical; details: for Impurity 1 / Impurity 2 / Impurity 3 / Impurity 4 / Impurity 5 / Total Imp.: closed glass container
Procedure: as §1
The crystalline form of Compound A of the present invention (prepared according to the procedure described in Example 1) was stored in closed glass containers at heat stress condition of 70° C. for 3 weeks. In addition, the crystalline form of Compound A of the present invention (prepared according to the procedures described in Example 1 and 3, respectively) was stored in closed glass containers at heat stress condition of 105° C. for 24 hours.
For example, the increase in total impurities of crystalline compound A obtained according to the procedure of Example 3 was below 0.5%. Table 10, provides the chemical stability data of the crystalline compound A obtained according to the procedure of Example 1.

[7] = initial, before 40°C/75% RH storage
[8] = open storage 40°C/75% RH, 6 months
[9] = open storage 25°C/60% RH, 6 months
[10] = Example 1 material, open storage 60°C/80% RH, 3 days
[11] = Example 3 material, open storage 60°C/80% RH, 3 days
[12] = Example 1 material, 70°C, 3 weeks
[13] = Example 1 material, 105°C, 24 hours
[14] = Example 1 material, 70°C, 1 week
[15] = Example 1 material, 70°C, 2 weeks
[16] = Example 1 material, closed glass containers, 70°C, 3 weeks
[17] = Example 1 material, closed glass containers, 105°C, 24 hours
[18] = Example 3 material, closed glass containers, 105°C, 24 hours

Structure (SMILES): Cc1c(C(=O)O)ccc2c3n(nc12)[C@@H]1[C@H](C3)N(CC2CC2)[C@@]2(C(=O)Nc3cc(Cl)ccc32)[C@H]1c1cccc(Cl)c1F [crystalline form of Compound A, (2′S,3′S,3a′S,10a′S)-6-chloro-3′-(3-chloro-2-fluorophenyl)-1′-(cyclopropylmethyl)-6′-methyl-2-oxo-1,2,3′,3a′,10′,10a′-hexahydro-1′H-spiro[indole-3,2′-pyrrolo[2′,3′:4,5]pyrrolo[1,2-b]indazole]-7′-carboxylic acid]
- stability under accelerated stress conditions (summary) ([1]; 40°C/75% relative humidity, 6 months): stable
- Impurity A, Initial Peak Area-% [1, 7]: 0.06%
- Impurity B, Initial Peak Area-% [1, 7]: 0.06%
- Impurity C, Initial Peak Area-% [1, 7]: 0.05%
- Impurity D, Initial Peak Area-% [1, 7]: 0.23%
- Impurity E, Initial Peak Area-% [1, 7]: 0.31%
- Total impurities, Initial Peak Area-% [1, 7]: 0.71%
- Impurity A, Peak Area-% at 6 months [1, 8]: Not detected
- Impurity B, Peak Area-% at 6 months [1, 8]: 0.06%
- Impurity C, Peak Area-% at 6 months [1, 8]: 0.06%
- Impurity D, Peak Area-% at 6 months [1, 8]: 0.25%
- Impurity E, Peak Area-% at 6 months [1, 8]: 0.33%
- Total impurities, Peak Area-% at 6 months [1, 8]: 0.70%
- chemical stability: impurity profile of initial sample vs stressed sample [1, 8]: no significant increase of chemical impurities
- physical stability: XRPD of initial sample vs stressed sample [1, 8]: No differences in reflection positions
- water uptake ([2]; material obtained from ACN/H2O (Example 3)): about 3.1 % (w/w)
- water uptake ([2]; material obtained from IPA/H2O (Example 1)): about 3.6 % (w/w)
- Impurity 1 ([3]; 1 month): 0.07%
- Impurity 2 ([3]; 1 month): ≤0.05%
- Impurity 3 ([3]; 1 month): 0.06%
- Impurity 4 ([3]; 1 month): 0.23%
- Impurity 5 ([3]; 1 month): 0.25%
- Total impurities ([3]; 1 month): 0.61%
- Impurity 1 ([3]; 2 months): 0.07%
- Impurity 2 ([3]; 2 months): ≤0.05%
- Impurity 3 ([3]; 2 months): 0.06%
- Impurity 4 ([3]; 2 months): 0.23%
- Impurity 5 ([3]; 2 months): 0.25%
- Total impurities ([3]; 2 months): 0.61%
- Impurity 1 ([3]; 3 months): 0.07%
- Impurity 2 ([3]; 3 months): ≤0.05%
- Impurity 3 ([3]; 3 months): ≤0.05%
- Impurity 4 ([3]; 3 months): 0.23%
- Impurity 5 ([3]; 3 months): 0.25%
- Total impurities ([3]; 3 months): 0.60%
- Impurity 1 ([3]; 6 months): 0.07%
- Impurity 2 ([3]; 6 months): ≤0.05%
- Impurity 3 ([3]; 6 months): 0.06%
- Impurity 4 ([3]; 6 months): 0.23%
- Impurity 5 ([3]; 6 months): 0.27%
- Total impurities ([3]; 6 months): 0.63%
- Impurity 1 ([3]; Start): 0.08%
- Impurity 2 ([3]; Start): 0.06%
- Impurity 3 ([3]; Start): ≤0.05%
- Impurity 4 ([3]; Start): 0.26%
- Impurity 5 ([3]; Start): 0.26%
- Total impurities ([3]; Start): 0.66%
- stability under stress conditions (summary) ([3]; 25°C/60% relative humidity, 6 months): stable
- chemical stability: impurity profile of initial samples vs stressed samples [3, 9]: no significant increase of chemical impurities
- physical stability: XRPD of initial sample vs stressed sample [3, 9]: No differences in reflection positions
- Impurity 1 ([4]; Example 1 material, 3 days): 0.07%
- Impurity 2 ([4]; Example 1 material, 3 days): ≤0.05%
- Impurity 3 ([4]; Example 1 material, 3 days): 0.07%
- Impurity 4 ([4]; Example 1 material, 3 days): 0.24%
- Impurity 5 ([4]; Example 1 material, 3 days): 0.31%
- Total impurities ([4]; Example 1 material, 3 days): 0.69%
- Impurity 1 ([4]; Example 1 material, Start): 0.08%
- Impurity 2 ([4]; Example 1 material, Start): 0.06%
- Impurity 3 ([4]; Example 1 material, Start): ≤0.05%
- Impurity 4 ([4]; Example 1 material, Start): 0.26%
- Impurity 5 ([4]; Example 1 material, Start): 0.26%
- Total impurities ([4]; Example 1 material, Start): 0.66%
- stability under stress conditions (summary) ([4]; Example 1 material, 60°C/80% relative humidity, 3 days): stable
- chemical stability: impurity profiles of initial samples vs stressed samples [4, 10]: no significant increase of chemical impurities
- physical stability: XRPD of initial samples vs stressed samples [4, 10]: No differences in reflection positions
- physical and chemical stability under stress conditions (summary) ([4]; Example 3 material, 60°C/80% relative humidity, 3 days): physically and chemically stable
- increase in total impurities [4, 11]: below 0.5%
- physical stability: XRPD of initial samples vs stressed samples [4, 11]: No differences in reflection positions
- bioaccessibility profile, crystalline form versus amorphous Compound A ([5]; tablets): comparable bioaccessibility profiles
- effect of PSD and amorphous content on bioaccessibility and concentration profiles ([5]; tablets from batches of Table 15 (amorphous content 6-75%, D50 3.6-25.0 μm)): did not have a significant effect
- physical and chemical stability under temperature stress (summary) [6, 12]: physically and chemically stable
- physical and chemical stability under temperature stress (summary) [6, 13]: physically and chemically stable
- Impurity 1 [6, 14]: 0.07%
- Impurity 2 [6, 14]: ≤0.05%
- Impurity 3 [6, 14]: 0.07%
- Impurity 4 [6, 14]: 0.24%
- Impurity 5 [6, 14]: 0.26%
- Total Imp. [6, 14]: 0.64%
- Impurity 1 [6, 15]: 0.07%
- Impurity 2 [6, 15]: ≤0.05%
- Impurity 3 [6, 15]: 0.06%
- Impurity 4 [6, 15]: 0.23%
- Impurity 5 [6, 15]: 0.25%
- Total Imp. [6, 15]: 0.61%
- Impurity 1 [6, 12]: 0.07%
- Impurity 2 [6, 12]: ≤0.05%
- Impurity 3 [6, 12]: 0.07%
- Impurity 4 [6, 12]: 0.24%
- Impurity 5 [6, 12]: 0.31%
- Total Imp. [6, 12]: 0.69%
- Impurity 1 [6, 13]: 0.07%
- Impurity 2 [6, 13]: ≤0.05%
- Impurity 3 [6, 13]: 0.06%
- Impurity 4 [6, 13]: 0.23%
- Impurity 5 [6, 13]: 0.25%
- Total Imp. [6, 13]: 0.61%
- Impurity 1 ([6]; Example 1 material, Start): 0.08%
- Impurity 2 ([6]; Example 1 material, Start): 0.06%
- Impurity 3 ([6]; Example 1 material, Start): ≤0.05%
- Impurity 4 ([6]; Example 1 material, Start): 0.26%
- Impurity 5 ([6]; Example 1 material, Start): 0.26%
- Total Imp. ([6]; Example 1 material, Start): 0.66%
- chemical stability: impurity profiles of initial samples vs stressed samples [6, 16]: remained chemically stable
- physical stability: XRPD of initial samples vs stressed samples [6, 16]: No differences in reflection positions
- chemical stability: impurity profiles of initial samples vs stressed samples [6, 17]: remained chemically stable
- physical stability: XRPD of initial samples vs stressed samples [6, 17]: No differences in reflection positions
- physical and chemical stability under temperature stress (summary) ([6]; Example 3 material, 105°C, 24 hours): physically and chemically stable
- increase in total impurities [6, 18]: below 0.5%
- physical stability: XRPD of initial samples vs stressed samples [6, 18]: No differences in reflection positions
